Assay results from patent publication US9365533B2, “Coumarin derivative” (NIPPON ZOKI PHARMACEUTICAL CO., LTD., priority 2012, dated 2016).
Structures can show the parent of a compound that is named as a salt.

What was measured:
[1] = system: HFLS-OA cells; experiment: Suppressive action to TNF-α-induced proliferation of synovial cells (HFLS-OA), BrdU ELISA; format: cell-based; conditions: 200 μmol/L test substance, human recombinant TNF-α 10 ng/mL, 5 days, BrdU incorporation increase by TNF-α = 100%; for activity at 200 µM: Synovial cell, 120 h, read-out: Synovial Cell Proliferation Rate (%)
Description: Evaluation of Suppressive Action to Cell Proliferation of Synovial Cells (HFLS-OA) Derived from Tissues of Human Osteoarthritis
(1) Incubation of HFLS-OA Cells
HFLS-OA cells were sown onto a 96-well plate so as to make them 10^4 cells/well/100 μL in a D-MEM containing 2 vol % of fetal bovine serum (FBS) and incubated for 24 hours. A test substance (200 μmol/L) and human recombinant TNF-α (10 ng/mL) were added thereto followed by incubating for 5 days.
(2) Measurement of Action to HFLS-OA Cell Proliferation
A kit [Cell Proliferation ELISA, BrdU (colorimetric) (Roche Diagnostics)] was used and measurement was conducted according to the protocol attached to the kit. HFLS-OA cells were incubated for 3 days and 10 μL of 5-bromo-2′-deoxyuridine (BrdU) dissolved in a phosphate buffered saline (PBS) (100 μmol/L, pH 7.4) was added to each well followed by incubating for 48 hours more. After the culture supernatant was removed from each well, 200 μL/well of an immobilization/denaturation solution was added thereto and the mixture was allowed to stand for 30 minutes whereby immobilization of the cells and denaturation of DNA were conducted. After the immobilization/denaturation solution was completely removed, 100 μL of a peroxidase-labeled anti-BrdU antibody solution was added thereto and the mixture was made to react at room temperature for 90 minutes. After washing with PBS, 100 μL of a substrate liquid (tetramethylbenzidine) was added to each well and the absorbance was measured. A cell proliferation rate upon addition of each test substance was calculated where an increase in incorporation of BrdU upon addition of TNF-α was defined as 100% of cell proliferation rate.

[2] = system: cartilage pieces of bovine metacarpophalangeal joint; experiment: Suppressive action to cartilage destruction: release of sGAG induced by IL-1α from cartilage pieces; format: cell-based; conditions: 25 μmol/L test substance, 2 h pretreatment, human recombinant IL-1α 3 ng/mL, 4 days at 37° C.; for inhibition at 25 µM: Bos taurus, 96 h, read-out: sGAG Releasing Suppressive Rate (%)
Description: Evaluation of Suppressive Action to Cartilage Destruction [Release of sGAG Induced by Interleukin-1α (IL-1α)]
(1) Incubation of Cartilage Pieces
Each four cartilage pieces of bovine metacarpophalangeal joint were placed in each well of a 48-well plate and pretreated for 2 hours with a basal medium [D-MEM (Dulbecco's Modified Eagle Medium) containing 2 mmol/L of glutamine, 25 mmol/L of Hepes, 100 μg/mL of streptomycin, 100 IU/mL of penicillin and 5.6 μg/mL of amphotericin B] containing 25 μmol/L of a test substance. Human recombinant IL-1α (3 ng/mL) was added thereto followed by incubating at 37° C. for 4 days in a CO2 incubator set at 5 vol % of CO2. Culture supernatant and cartilage pieces were recovered and stored by freezing until the measurement for each of them.
(2) Measurement of the Amount of sGAG and Calculation of the Suppressive Rate for the Release of sGAG
The recovered cartilage pieces were treated with a papain solution [containing 1 mg/mL of papain, 100 mmol/L of sodium phosphate (pH 6.5), 5 mmol/L of L-cysteine and 5 mmol/L of disodium ethylenediaminetetraacetate (EDTA)] at 65° C. for about 16 hours to solubilize. Amount of sGAG in the resulting extract was measured using an sGAG Alcian Blue Binding Kit (Wieslab AB) which is a quantitative kit to which a Alcian blue staining protocol is applied. sGAG in the culture supernatant after the incubation was measured without subjecting to a papain treatment. Each releasing rate of sGAG was determined by the following formula to calculate the suppressive rate for the release of sGAG. Releasing rate (%) of sGAG={(Total sGAG amount in the culture supernatant)/[(Total sGAG amount in the culture supernatant)+(Total sGAG amount in the cartilage pieces)]}×100 Suppressive rate (%) for release of sGAG={[Releasing rate of sGAG (IL-1α stimulation)−Releasing rate of sGAG (Test substance)]/[Releasing rate of sGAG (IL-1α stimulation)−Releasing rate of sGAG (Non-stimulation)]}×100

Row | Structure (SMILES) | activity at 200 µM [1] | inhibition at 25 µM [2] | Synovial Cell Proliferation Rate (%) [1] | sGAG Releasing Suppressive Rate (%) [2]
1 | O=c1oc2c(OS(=O)(=O)c3ccccc3)cccc2cc1NS(=O)(=O)c1ccc(C(F)(F)F)cc1 [Compound 27, 2-Oxo-3-[[4-(trifluoromethyl)phenyl]sulfonylamino]-chromen-8-yl benzenesulfonate] | -36.3% | 162% | – | –
2 | O=c1oc2c(OS(=O)(=O)c3ccccc3)cccc2cc1NS(=O)(=O)c1cccc(C(F)(F)F)c1 [Compound 28, 2-Oxo-3-[[3-(trifluoromethyl)phenyl]sulfonylamino]-chromen-8-yl benzenesulfonate] | -33.7% | 140% | – | –
3 | O=c1oc2c(OS(=O)(=O)c3ccccc3)cccc2cc1NS(=O)(=O)c1ccc(Cl)cc1 [Compound 29, 3-[(4-Chlorophenyl)sulfonylamino]-2-oxochromen-8-yl benzenesulfonate] | -31.3% | 121% | – | –
4 | O=c1oc2c(OS(=O)(=O)c3ccccc3)cccc2cc1NS(=O)(=O)c1ccc(-c2ccccc2)cc1 [Compound 30, 2-Oxo-3-[(4-phenylphenyl)sulfonylamino]chromen-8-yl benzenesulfonate] | -33% | 141% | – | –
5 | O=c1oc2c(OS(=O)(=O)c3ccccc3)cccc2cc1NS(=O)(=O)c1cccc(Br)c1 [Compound 31, 3-[(3-Bromophenyl)sulfonylamino]-2-oxochromen-8-yl benzenesulfonate] | -37.1% | 135% | – | –
6 | O=c1oc2c(OS(=O)(=O)c3cccc(Br)c3)cccc2cc1NS(=O)(=O)c1cccc(Br)c1 [Compound 32, 3-[(3-Bromophenyl)sulfonylamino]-2-oxochromen-8-yl 3-bromobenzenesulfonate] | -41.1% | 202% | – | –
7 | O=c1oc2c(OS(=O)(=O)c3cccc(C(F)(F)F)c3)cccc2cc1NS(=O)(=O)c1cccc(C(F)(F)F)c1 [Compound 33, 2-Oxo-3-[[3-(trifluoromethyl)phenyl]sulfonylamino]-chromen-8-yl 3-(trifluoromethyl)benzenesulfonate] | -40% | 147% | – | –
8 | O=c1oc2c(OS(=O)(=O)c3cccc(Br)c3)cccc2cc1NS(=O)(=O)c1ccccc1 [Compound 34, 3-(Benzenesulfonamide)-2-oxochromen-8-yl 3-bromobenzenesulfonate] | – | – | −31.6% | 109%
9 | O=c1oc2c(OS(=O)(=O)c3cccc(C(F)(F)F)c3)cccc2cc1NS(=O)(=O)c1ccccc1 [Compound 35, 3-(Benzenesulfonamide)-2-oxochromen-8-yl 3-(trifluoromethyl)benzenesulfonate] | – | – | −31.5% | 103%
10 | O=c1oc2c(OS(=O)(=O)c3cccnc3)cccc2cc1NS(=O)(=O)c1cccc(Br)c1 [Compound 36] | – | – | −33.9% | 30%
11 | CS(=O)(=O)Oc1cccc2cc(NS(=O)(=O)c3cccc(Br)c3)c(=O)oc12 [Compound 37, 3-[(3-Bromophenyl)sulfonylamino)]-2-oxochromen-8-yl methanesulfonate] | – | – | −22.6% | 17%
12 | O=c1oc2c(OS(=O)(=O)c3cccc(Br)c3)cccc2cc1NS(=O)(=O)c1cccnc1 [Compound 38, 2-Oxo-3-(3-pyridylsulfonylamino)chromen-8-yl 3-bromobenzenesulfonate] | -31.2% | 67% | – | –
13 | O=c1oc2c(OS(=O)(=O)c3ccc([N+](=O)[O-])cc3)cccc2cc1NS(=O)(=O)c1cccc(C(F)(F)F)c1 [Compound 41, 2-Oxo-3-[[3-(trifluoromethyl)phenyl]sulfonylamino]-chromen-8-yl 4-nitrobenzenesulfonate] | -37.7% | 172% | – | –
14 | O=c1oc2c(OS(=O)(=O)c3cccc(C(F)(F)F)c3)cccc2cc1NS(=O)(=O)c1ccc([N+](=O)[O-])cc1 [Compound 42, 3-[(4-Nitrophenyl)sulfonylamino]-2-oxochromen-8-yl 3-(trifluoromethyl)benzenesulfonate] | -35.5% | 163% | – | –
15 | O=c1oc2c(OS(=O)(=O)c3cccs3)cccc2cc1NS(=O)(=O)c1cccc([N+](=O)[O-])c1 [Compound 43, 3-[(3-Nitrophenyl)sulfonylamino]-2-oxochromen-8-yl thiophene-2-sulfonate] | -30.3% | 107% | – | –
16 | O=c1oc2c(OS(=O)(=O)c3cccc([N+](=O)[O-])c3)cccc2cc1NS(=O)(=O)c1cccs1 [Compound 44, 2-Oxo-3-(2-thienylsulfonylamino)chromen-8-yl 3-nitrobenzenesulfonate] | -31.5% | 118% | – | –
17 | Nc1ccc(S(=O)(=O)Oc2cccc3cc(NS(=O)(=O)c4cccc(C(F)(F)F)c4)c(=O)oc23)cc1 [Compound 46, 2-Oxo-3-[[3-(trifluoromethyl)phenyl]sulfonylamino]-chromen-8-yl 4-aminobenzenesulfonate hydrochloride] | -37% | 98% | – | –
18 | Nc1ccc(S(=O)(=O)Nc2cc3cccc(OS(=O)(=O)c4cccc(C(F)(F)F)c4)c3oc2=O)cc1 [Compound 47, 3-[(4-Aminophenyl)sulfonylamino]-2-oxochromen-8-yl 3-(trifluoromethyl)benzenesulfonate] | -40.1% | 69% | – | –
19 | CCOC(=O)c1ccc(S(=O)(=O)Oc2cccc3cc(NS(=O)(=O)c4cccc([N+](=O)[O-])c4)c(=O)oc23)cc1 [Compound 48, Ethyl 4-[3-[(3-nitrophenyl)sulfonylamino]-2-oxochromen-8-yl]oxysulfonylbenzoate] | -34.9% | 122% | – | –
20 | O=C(O)c1ccc(S(=O)(=O)Oc2cccc3cc(NS(=O)(=O)c4cccc([N+](=O)[O-])c4)c(=O)oc23)cc1 [Compound 49, 4-[3-[(3-Nitrophenyl)sulfonylamino]-2-oxochromen-8-yl]oxysulfonylbenzoic acid] | -36.1% | 38% | – | –
21 | O=c1oc2c(OS(=O)(=O)c3cccc([N+](=O)[O-])c3)cccc2cc1NS(=O)(=O)c1cccc(C(F)(F)F)c1 [Compound 50, 2-Oxo-3-[[3-(trifluoromethyl)phenyl]sulfonylamino]-chromen-8-yl 3-nitrobenzenesulfonate] | -46.4% | 163% | – | –
22 | O=c1oc2c(OS(=O)(=O)c3cccc(C(F)(F)F)c3)cccc2cc1NS(=O)(=O)c1cccc([N+](=O)[O-])c1 [Compound 51] | – | – | −36.5% | 141%
23 | O=c1oc2c(OS(=O)(=O)c3cccc(C(F)(F)F)c3)cccc2cc1NS(=O)(=O)c1ccc(-c2ccccc2)cc1 [Compound 52, 2-Oxo-3-[(4-phenylphenyl)sulfonylamino]chromen-8-yl 3-(trifluoromethyl)benzenesulfonate] | -35.5% | 126% | – | –
24 | O=c1oc2c(OS(=O)(=O)c3cccc(Br)c3)cccc2cc1NS(=O)(=O)c1ccc(-c2ccccc2)cc1 [Compound 53, 2-Oxo-3-[(4-phenylphenyl)sulfonylamino]chromen-8-yl 3-bromobenzenesulfonate] | -32.3% | 131% | – | –
